Where two headings read alike, the source gives them in different places.
Test system: Aβ1-42 production
Assay: Cellular assay for inhibition of Aβ1-42 production (H4 APP751 SWE clone 8.20)
Type: cell-based
Details: H4 APP751 SWE clone 8.20 cells, 19 h incubation
Summary of the method: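 Aβ42 read by time-resolved FRET using neoepitope antibody 565 (0.8 ng/well) paired with N-terminal 26D6 (75 ng/well), incubated overnight at 4 °C, then IC50 curve fitting. Cells: H4 APP751 Swedish clone 8.20, exposed to compound for 19 h at 37 °C.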

[1] = class symbols, read-out: Activity Rating (Aβ42 cellular IC50)
[2] = 19 h, class symbols, read-out: Activity Rating (Aβ42 cellular IC50)
[3] = 19 h, read-out: Activity Rating (Aβ42 cellular IC50), numeric value

Row | SMILES | IC50 [2] | other results
1 | CCNc1nc(Nc2ccc(-n3ncnc3C)c(F)c2)nc2c1CN(S(C)(=O)=O)CC2c1ccccc1 (centres unmarked) [Example 140A, N4-ethyl-N2-(3-fluoro-4-(5-methyl-1H-1,2,4-triazol-1-yl)phenyl)-6-(methylsulfonyl)-8-phenyl-5,6,7,8-tetrahydropyrido[4,3-d]pyrimidine-2,4-diamine] | – | IC50 [1]: 1.5 to 9.9 nM
2 | CNc1nc(Nc2ccc(-n3cnc(C)n3)c(F)c2)nc2c1CN(S(=O)(=O)C1CC1)CC2c1ccccc1 (centres unmarked) [Example 141, 6-(cyclopropylsulfonyl)-N2-(3-fluoro-4-(3-methyl-1H-1,2,4-triazol-1-yl)phenyl)-N4-methyl-8-phenyl-5,6,7,8-tetrahydropyrido[4,3-d]pyrimidine-2,4-diamine] | – | IC50 [1]: 10 to 100 nM
3 | CNc1nc(Nc2ccc(-n3cnc(C)n3)c(F)c2)nc2c1CN(S(=O)(=O)C1CC1)CC2c1ccccc1 (centres unmarked) [Example 141A, 6-(cyclopropylsulfonyl)-N2-(3-fluoro-4-(3-methyl-1H-1,2,4-triazol-1-yl)phenyl)-N4-methyl-8-phenyl-5,6,7,8-tetrahydropyrido[4,3-d]pyrimidine-2,4-diamine] | – | IC50 [1]: 1.5 to 9.9 nM
4 | CNc1nc(Nc2ccc(-n3ncnc3C)c(F)c2)nc2c1CN(S(=O)(=O)C1CC1)CC2c1ccccc1 (centres unmarked) [Example 142, 6-(cyclopropylsulfonyl)-N2-(3-fluoro-4-(5-methyl-1H-1,2,4-triazol-1-yl)phenyl)-N4-methyl-8-phenyl-5,6,7,8-tetrahydropyrido[4,3-d]pyrimidine-2,4-diamine] | 10 to 100 nM | –
5 | CCNc1nc(Nc2ccc(-n3cnc(C)n3)c(F)c2)nc2c1CN(C(=O)C1CC1)CC2c1ccccc1 (centres unmarked) [Example 143, cyclopropyl(4-(ethylamino)-2-(3-fluoro-4-(3-methyl-1H-1,2,4-triazol-1-yl)phenylamino)-8-phenyl-7,8-dihydropyrido[4,3-d]pyrimidin-6(5H)-yl)methanone] | 10 to 100 nM | –
6 | CCNc1nc(Nc2ccc(-n3cnc(C)n3)c(F)c2)nc2c1CN(C(=O)C1CC1)CC2c1ccccc1 (centres unmarked) [Example 143B, cyclopropyl(4-(ethylamino)-2-(3-fluoro-4-(3-methyl-1H-1,2,4-triazol-1-yl)phenylamino)-8-phenyl-7,8-dihydropyrido[4,3-d]pyrimidin-6(5H)-yl)methanone] | – | IC50 [3]: 430 nM
7 | CCNc1nc(Nc2ccc(-n3ncnc3C)c(F)c2)nc2c1CN(C(=O)C1CC1)CC2c1ccccc1 (centres unmarked) [Example 144, cyclopropyl(4-(ethylamino)-2-(3-fluoro-4-(5-methyl-1H-1,2,4-triazol-1-yl)phenylamino)-8-phenyl-7,8-dihydropyrido[4,3-d]pyrimidin-6(5H)-yl)methanone] | 10 to 100 nM | –
8 | CCNc1nc(Nc2ccc(-n3ncnc3C)c(F)c2)nc2c1CN(C(=O)C1CC1)CC2c1ccccc1 (centres unmarked) [Example 144B, cyclopropyl(4-(ethylamino)-2-(3-fluoro-4-(5-methyl-1H-1,2,4-triazol-1-yl)phenylamino)-8-phenyl-7,8-dihydropyrido[4,3-d]pyrimidin-6(5H)-yl)methanone] | – | IC50 [3]: 540 nM
9 | CCNc1nc(Nc2ccc(-n3cnc(C)n3)c(F)c2)nc2c1CN(CC(F)(F)F)CC2c1ccccc1 (centres unmarked) [Example 145, N4-ethyl-N2-(3-fluoro-4-(3-methyl-1H-1,2,4-triazol-1-yl)phenyl)-8-phenyl-6-(2,2,2-trifluoroethyl)-5,6,7,8-tetrahydropyrido[4,3-d]pyrimidine-2,4-diamine] | 10 to 100 nM | –
10 | CCNc1nc(Nc2ccc(-n3ncnc3C)c(F)c2)nc2c1CN(CC(F)(F)F)CC2c1ccccc1 (centres unmarked) [Example 146, N4-ethyl-N2-(3-fluoro-4-(5-methyl-1H-1,2,4-triazol-1-yl)phenyl)-8-phenyl-6-(2,2,2-trifluoroethyl)-5,6,7,8-tetrahydropyrido[4,3-d]pyrimidine-2,4-diamine] | 10 to 100 nM | –
11 | COc1cc(Nc2nc3c(c(N(C)C)n2)CN(S(C)(=O)=O)CC3c2ccccc2)ccc1-n1cnc(Cl)c1 (centres unmarked) [Example 147, N2-(4-(4-chloro-1H-imidazol-1-yl)-3-methoxyphenyl)-N4,N4-dimethyl-6-(methylsulfonyl)-8-phenyl-5,6,7,8-tetrahydropyrido[4,3-d]pyrimidine-2,4-diamine] | 10 to 100 nM | –

Source: US8637525B2, “Compounds for the reduction of beta-amyloid production” (Bristol-Myers Squibb Company, priority 2009, dated 2014)
